Calls of active or inactive are those of the source. The rule behind the calls is not given here.
Key:
[1] = Stability in human serum assessed as full-length compound remaining after 10 mins by anion-exchange HPLC; type: ADME, cell-free; conditions: read-out: Stability
[2] = target: T1, Toll-like receptor 8 (Homo sapiens) (UniProt Q9NR97); assay: Agonist activity at human TLR8 expressed in HEK293XL cells assessed as NF-kappaB activation after 18 hrs; type: functional, cell-based
T1 sequence (whole entry): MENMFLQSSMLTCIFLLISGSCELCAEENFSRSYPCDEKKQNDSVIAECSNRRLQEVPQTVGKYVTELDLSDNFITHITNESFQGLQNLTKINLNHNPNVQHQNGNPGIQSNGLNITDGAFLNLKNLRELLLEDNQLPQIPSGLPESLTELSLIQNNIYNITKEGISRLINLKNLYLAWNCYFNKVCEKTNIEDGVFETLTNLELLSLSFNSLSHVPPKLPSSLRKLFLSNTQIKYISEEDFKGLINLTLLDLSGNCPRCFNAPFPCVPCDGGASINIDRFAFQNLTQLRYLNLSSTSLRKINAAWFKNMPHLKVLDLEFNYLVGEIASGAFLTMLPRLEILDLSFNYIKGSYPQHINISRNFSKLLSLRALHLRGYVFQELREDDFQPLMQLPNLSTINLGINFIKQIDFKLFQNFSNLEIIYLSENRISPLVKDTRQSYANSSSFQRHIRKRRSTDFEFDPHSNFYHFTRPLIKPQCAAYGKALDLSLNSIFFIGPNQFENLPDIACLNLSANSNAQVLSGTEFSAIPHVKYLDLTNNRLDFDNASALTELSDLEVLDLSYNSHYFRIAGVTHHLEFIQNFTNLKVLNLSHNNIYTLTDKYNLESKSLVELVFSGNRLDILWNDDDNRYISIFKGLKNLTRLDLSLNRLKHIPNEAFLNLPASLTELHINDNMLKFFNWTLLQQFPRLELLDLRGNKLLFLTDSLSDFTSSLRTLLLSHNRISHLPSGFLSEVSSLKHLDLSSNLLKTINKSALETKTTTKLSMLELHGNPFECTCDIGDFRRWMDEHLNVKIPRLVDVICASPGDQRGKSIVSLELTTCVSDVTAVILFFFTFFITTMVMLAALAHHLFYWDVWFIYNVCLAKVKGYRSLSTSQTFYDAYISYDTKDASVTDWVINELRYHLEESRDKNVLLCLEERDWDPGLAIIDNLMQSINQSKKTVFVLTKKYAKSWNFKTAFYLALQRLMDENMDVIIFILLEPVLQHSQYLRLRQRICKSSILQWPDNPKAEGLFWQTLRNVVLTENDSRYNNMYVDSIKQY

[3] = target: T2, Toll-like receptor 7 (Homo sapiens) (UniProt Q9NYK1); assay: Agonist activity at human TLR7 expressed in HEK293XL cells assessed as NF-kappaB activation at 300 ug/ml after 18 hrs; type: functional, cell-based
T2 sequence (whole entry): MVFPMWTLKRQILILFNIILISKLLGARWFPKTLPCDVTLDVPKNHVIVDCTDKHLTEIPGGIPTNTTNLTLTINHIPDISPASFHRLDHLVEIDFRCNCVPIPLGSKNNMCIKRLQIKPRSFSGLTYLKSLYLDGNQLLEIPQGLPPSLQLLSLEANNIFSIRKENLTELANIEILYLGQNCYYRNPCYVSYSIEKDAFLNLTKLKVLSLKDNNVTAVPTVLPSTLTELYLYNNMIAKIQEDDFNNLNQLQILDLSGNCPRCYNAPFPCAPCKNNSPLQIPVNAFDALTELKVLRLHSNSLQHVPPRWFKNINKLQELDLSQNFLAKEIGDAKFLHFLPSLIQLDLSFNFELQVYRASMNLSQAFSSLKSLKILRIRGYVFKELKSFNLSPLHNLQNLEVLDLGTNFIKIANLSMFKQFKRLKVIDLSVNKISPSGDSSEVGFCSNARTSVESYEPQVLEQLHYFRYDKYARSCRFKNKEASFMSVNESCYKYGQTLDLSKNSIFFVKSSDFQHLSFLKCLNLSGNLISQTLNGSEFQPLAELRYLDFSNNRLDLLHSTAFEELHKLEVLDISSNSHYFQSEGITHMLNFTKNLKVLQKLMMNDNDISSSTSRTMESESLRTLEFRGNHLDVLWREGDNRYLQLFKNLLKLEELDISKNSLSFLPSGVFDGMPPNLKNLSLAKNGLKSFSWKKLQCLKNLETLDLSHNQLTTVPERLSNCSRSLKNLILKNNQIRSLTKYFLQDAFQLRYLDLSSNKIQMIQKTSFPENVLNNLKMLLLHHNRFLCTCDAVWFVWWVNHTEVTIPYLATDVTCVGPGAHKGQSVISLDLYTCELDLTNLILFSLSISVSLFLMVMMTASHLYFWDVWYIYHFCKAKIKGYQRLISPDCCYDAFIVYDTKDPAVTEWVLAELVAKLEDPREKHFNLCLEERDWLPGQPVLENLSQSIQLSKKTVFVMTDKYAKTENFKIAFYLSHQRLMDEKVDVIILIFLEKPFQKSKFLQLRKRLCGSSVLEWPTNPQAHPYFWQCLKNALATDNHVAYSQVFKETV

PBMC [4] = assay: Stimulation of immune response in human PBMC assessed as induction of IL1-beta production at 150 ug/ml after 24 hrs; type: functional, cell-based
PBMC [5] = assay: Stimulation of immune response in human PBMC assessed as induction of IL2R level at 150 ug/ml after 24 hrs; type: functional, cell-based
PBMC [6] = assay: Stimulation of immune response in human PBMC assessed as induction of IL8 production at 150 ug/ml after 24 hrs; type: functional, cell-based
PBMC [7] = assay: Stimulation of immune response in human PBMC assessed as induction of IL10 production at 150 ug/ml after 24 hrs; type: functional, cell-based
PBMC [8] = assay: Stimulation of immune response in human PBMC assessed as induction of IL12 production at 150 ug/ml after 24 hrs; type: functional, cell-based
PBMC [9] = assay: Stimulation of immune response in human PBMC assessed as induction of IFNalpha production at 150 ug/ml after 24 hrs; type: functional, cell-based
PBMC [10] = assay: Stimulation of immune response in human PBMC assessed as induction of IFN-gamma production at 150 ug/ml after 24 hrs; type: functional, cell-based
PBMC [11] = assay: Stimulation of immune response in human PBMC assessed as induction of MCP1 production at 150 ug/ml after 24 hrs; type: functional, cell-based
PBMC [12] = assay: Stimulation of immune response in human PBMC assessed as induction of RANTES production at 150 ug/ml after 24 hrs; type: functional, cell-based
PBMC [13] = assay: Stimulation of immune response in human PBMC assessed as induction of MIP1alpha production at 150 ug/ml after 24 hrs; type: functional, cell-based
PBMC [14] = assay: Stimulation of immune response in human PBMC assessed as induction of MIP1beta production at 150 ug/ml after 24 hrs; type: functional, cell-based
PBMC [15] = assay: Stimulation of immune response in human PBMC assessed as induction of TNFalpha production at 150 ug/ml after 24 hrs; type: functional, cell-based
Homo sapiens [16] = organism: Homo sapiens; assay: Stimulation of immune response in human pDC assessed as induction of IFN-gamma production at 150 ug/ml after 24 hrs; type: functional
Homo sapiens [17] = organism: Homo sapiens; assay: Stimulation of immune response in human pDC assessed as induction of IFNalpha production at 150 ug/ml after 24 hrs; type: functional
Homo sapiens [18] = organism: Homo sapiens; assay: Stimulation of immune response in human pDC assessed as induction of IL12 production at 150 ug/ml after 24 hrs; type: functional
Homo sapiens [19] = organism: Homo sapiens; assay: Stimulation of immune response in human pDC assessed as induction of TNFalpha production at 150 ug/ml after 24 hrs; type: functional
Homo sapiens [20] = organism: Homo sapiens; assay: Stimulation of immune response in human pDC assessed as induction of MIP1alpha production at 150 ug/ml after 24 hrs; type: functional
Homo sapiens [21] = organism: Homo sapiens; assay: Stimulation of immune response in human pDC assessed as induction of MIP1beta production at 150 ug/ml after 24 hrs; type: functional
Mus musculus = assay: Stimulation of immune response in C57BL/6 mouse assessed as induction of serum IL12 production at 50 mg/kg, sc after 2 hrs by luminex multiplex assay; type: functional, organism-based; design: dose 50 mg/kg

**Q.** With `Nc1ccn([C@@H]2O[C@H](COP(=O)(S)O[C@H]3[C@@H](O)[C@H](n4ccc(=O)[nH]c4=O)O[C@@H]3COP(=O)(S)O[C@H]3[C@@H](O)[C@H](n4ccc(=O)[nH]c4=O)O[C@@H]3COP(=O)(S)O[C@H]3[C@@H](O)[C@H](n4cnc5c(=O)[nH]c(N)nc54)O[C@@H]3COP(=O)(S)O[C@H]3[C@@H](O)[C@H](n4ccc(=O)[nH]c4=O)O[C@@H]3COP(=O)(S)O[C@H]3[C@@H](O)[C@H](n4cnc5c(=O)[nH]c(N)nc54)O[C@@H]3COP(=O)(S)OCC(O)COP(=O)(S)O[C@H]3[C@@H](O)[C@H](n4cnc5c(=O)[nH]c(N)nc54)O[C@@H]3COP(=O)(S)O[C@H]3[C@@H](O)[C@H](n4ccc(=O)[nH]c4=O)O[C@@H]3COP(=O)(S)O[C@H]3[C@@H](O)[C@H](n4cnc5c(=O)[nH]c(N)nc54)O[C@@H]3COP(=O)(S)O[C@H]3[C@@H](O)[C@H](n4ccc(=O)[nH]c4=O)O[C@@H]3COP(=O)(S)O[C@H]3[C@@H](O)[C@H](n4ccc(=O)[nH]c4=O)O[C@@H]3COP(=O)(S)O[C@H]3[C@@H](O)[C@H](n4ccc(N)nc4=O)O[C@@H]3COP(=O)(S)O[C@H]3[C@@H](O)[C@H](n4cnc5c(=O)[nH]c(N)nc54)O[C@@H]3COP(=O)(S)O[C@H]3[C@H](O)[C@H](n4ccc(=O)[nH]c4=O)O[C@@H]3COP(=O)(S)O[C@H]3[C@@H](O)[C@H](n4ccc(N)nc4=O)O[C@@H]3COP(=O)(S)O[C@H]3[C@@H](O)[C@H](n4cnc5c(=O)[nH]c(N)nc54)O[C@@H]3COP(=O)(S)O[C@H]3[C@H](O)[C@H](n4ccc(=O)[nH]c4=O)O[C@@H]3CO)[C@@H](OP(=O)(S)OC[C@H]3O[C@@H](n4cnc5c(=O)[nH]c(N)nc54)[C@H](O)[C@@H]3OP(=O)(S)OC[C@H]3O[C@@H](n4ccc(=O)[nH]c4=O)[C@@H](O)[C@@H]3OP(=O)(S)OC[C@H]3O[C@@H](n4ccc(N)nc4=O)[C@H](O)[C@@H]3OP(=O)(S)OC[C@H]3O[C@@H](n4cnc5c(=O)[nH]c(N)nc54)[C@H](O)[C@@H]3OP(=O)(S)OC[C@H]3O[C@@H](n4ccc(=O)[nH]c4=O)[C@@H](O)[C@@H]3OP(=O)(O)S)[C@H]2O)c(=O)n1` (some centres not stated) as the compound, how does the remaining at 10 min [1] read?
**A.** 76%

**Q.** And the Activity [2]?
**A.** Dose-dependent effect

**Q.** What about the Activity [3] of the same compound?
**A.** inactive

**Q.** And the Activity (PBMC [4])?
**A.** Active

**Q.** What about the Activity (PBMC [5]) of the same compound?
**A.** Active

**Q.** What about the Activity (PBMC [6]) of the same compound?
**A.** Active

**Q.** What about the Activity (PBMC [7]) of the same compound?
**A.** Active

**Q.** What about the Activity (PBMC [8]) of the same compound?
**A.** Active

**Q.** What about the Activity (PBMC [9]) of the same compound?
**A.** Active

**Q.** What about the Activity (PBMC [10]) of the same compound?
**A.** Active

**Q.** And the Activity (PBMC [11])?
**A.** Active

**Q.** What about the Activity (PBMC [12]) of the same compound?
**A.** Active

**Q.** And the Activity (PBMC [13])?
**A.** Active

**Q.** What about the Activity (PBMC [14]) of the same compound?
**A.** Active

**Q.** And the Activity (PBMC [15])?
**A.** Active

**Q.** What about the Activity (Homo sapiens [16]) of the same compound?
**A.** Active

**Q.** And the Activity (Homo sapiens [17])?
**A.** inactive

**Q.** And the Activity (Homo sapiens [18])?
**A.** Active

**Q.** What about the Activity (Homo sapiens [19]) of the same compound?
**A.** Active

**Q.** And the Activity (Homo sapiens [20])?
**A.** Active

**Q.** And the Activity (Homo sapiens [21])?
**A.** Active

**Q.** What about the Activity (Mus musculus) of the same compound?
**A.** inactive
